Experimental data: PMC7409168, “The Multidrug Resistance-Reversing Activity of a Novel Antimicrobial Peptide” (Cancers, 2020)
Read-outs that look alike come from different tables or passages of the source. Residues, ends and D or L forms follow the SMILES beside them.

Legend:
[1] = test system: NCI-H460/MX20; test: MTT cytotoxicity of ABCG2 substrates with or without a reversal agent, NCI-H460/MX20; format: cell-based, human; settings: for IC50: NCI-H460/MX20, mean ± SD, at least three independent experiments in triplicate, read-out: IC50 of the anticancer drug alone; for IC50 / RF (resistant fold) of the anticancer drug alone: no reversal agent
From the text: (§1) The drug-selected ABCG2-overexpressing non-small cell lung cancer (NSCLC) cell line NCI-H460/MX20 and its parental NCI-H460 cell line, and the ABCB1 gene-transfected HEK293 cells, HEK293/ABCB1, and its parental empty vector transfected HEK293 cells, HEK293/pcDNA3.1 were provided by Drs. Susan E. Bates and Robert Robey (NIH, MD). The drug-resistant ABCB1 overexpressing human epidermal carcinoma cell line KB-C2 and its parental KB-3-1 cell line were generously provided by Dr. Shin-Ichi Akiyama (Kagoshima University, Kagoshima, Japan). All cell lines were cultured in complete Dulbecco’s modified Eagle’s medium(DMEM) (Hyclone, GE Healthcare Life Sciences, Pittsburgh, PA, USA) with the addition of 10% fetal bovine serum (FBS) and 1% penicillin/streptomycin (Hyclone, GE Healthcare Life Sciences, Pittsburgh, PA, USA). The transfected cell lines were selected in complete medium with addition of 2 mg/mL of Geneticin (Enzo Life Sciences, Farmingdale, NY, USA) for selection, KB-C2 cells were continually treated with complete medium and […], and NCI-H460/MX20 cells were cultured with 20 ng/mL mitoxantrone added to the complete medium. All drug-treated cell lines were recovered for more than 2 weeks without treatment before their use. The culture condition was in a humidified incubator at 37 °C with 5% CO2.
(§2) The final absorbance of each well was measured by Microplate Spectrophotometer (Fisher Sci., Fair Lawn, NJ, USA) at 570 nm.

[2] = test system: NCI-H460; test: MTT cytotoxicity of ABCG2 substrates with or without a reversal agent, NCI-H460; format: cell-based, human; settings: for IC50 / RF (resistant fold) of the anticancer drug alone: no reversal agent; for IC50: mean ± SD, at least three independent experiments in triplicate, read-out: IC50 of the anticancer drug alone; for RF (resistant fold) of the anticancer drug alone: relative to drug alone in NCI-H460
From the text: as §1, §2

[3] = test system: HEK293/pcDNA3.1; test: MTT cytotoxicity of ABCB1 substrates with or without a reversal agent, HEK293/pcDNA3.1; format: cell-based; settings: no reversal agent; for IC50: mean ± SD, at least three independent experiments in triplicate, read-out: IC50 of the anticancer drug alone; for RF (resistant fold) of the anticancer drug alone: relative to drug alone in HEK293/pcDNA3.1
From the text: as §1, §2

[4] = test system: KB-3-1; test: MTT cytotoxicity of ABCB1 substrates with or without a reversal agent, KB-3-1; format: cell-based, human; settings: no reversal agent; for IC50: mean ± SD, at least three independent experiments in triplicate, read-out: IC50 of the anticancer drug alone; for RF (resistant fold) of the anticancer drug alone: IC50 relative to drug alone in KB-3-1
From the text: as §1, §2

[5] = test system: KB-C2; test: MTT cytotoxicity of ABCB1 substrates with or without a reversal agent, KB-C2; settings: for RF (resistant fold) of the anticancer drug alone: IC50 in KB-C2 divided by IC50 in KB-3-1
From the text: as §1, §2

[6] = test system: HEK293/ABCB1; test: MTT cytotoxicity of ABCB1 substrates with or without a reversal agent, HEK293/ABCB1; format: cell-based; settings: no reversal agent; for IC50: HEK293/ABCB1, mean ± SD, at least three independent experiments in triplicate, read-out: IC50 of the anticancer drug alone; for RF (resistant fold) of the anticancer drug alone: IC50 in HEK293/ABCB1 divided by IC50 in HEK293/pcDNA3.1
From the text: as §1, §2

[7] = in vitro; settings: human
From the text: as §1, §2

[8] = test system: parental cells NCI-H460; settings: read-out: IC50 of peptide, MTT, 570 nm, at least three independent experiments in triplicate
From the text: as §1, §2

[9] = test system: parental cells (KB-3-1); settings: read-out: IC50 of peptide; KB-3-1 (parental); MTT, 570 nm; at least three independent triplicate experiments
From the text: as §1, §2

[10] = biological target: T1, ABCB1 (Homo sapiens, UniProt P08183); settings: XH-14C 0–40 μM; vanadate-sensitive; phosphate read at 800 nm; three independent experiments
T1 sequence (P08183 whole entry): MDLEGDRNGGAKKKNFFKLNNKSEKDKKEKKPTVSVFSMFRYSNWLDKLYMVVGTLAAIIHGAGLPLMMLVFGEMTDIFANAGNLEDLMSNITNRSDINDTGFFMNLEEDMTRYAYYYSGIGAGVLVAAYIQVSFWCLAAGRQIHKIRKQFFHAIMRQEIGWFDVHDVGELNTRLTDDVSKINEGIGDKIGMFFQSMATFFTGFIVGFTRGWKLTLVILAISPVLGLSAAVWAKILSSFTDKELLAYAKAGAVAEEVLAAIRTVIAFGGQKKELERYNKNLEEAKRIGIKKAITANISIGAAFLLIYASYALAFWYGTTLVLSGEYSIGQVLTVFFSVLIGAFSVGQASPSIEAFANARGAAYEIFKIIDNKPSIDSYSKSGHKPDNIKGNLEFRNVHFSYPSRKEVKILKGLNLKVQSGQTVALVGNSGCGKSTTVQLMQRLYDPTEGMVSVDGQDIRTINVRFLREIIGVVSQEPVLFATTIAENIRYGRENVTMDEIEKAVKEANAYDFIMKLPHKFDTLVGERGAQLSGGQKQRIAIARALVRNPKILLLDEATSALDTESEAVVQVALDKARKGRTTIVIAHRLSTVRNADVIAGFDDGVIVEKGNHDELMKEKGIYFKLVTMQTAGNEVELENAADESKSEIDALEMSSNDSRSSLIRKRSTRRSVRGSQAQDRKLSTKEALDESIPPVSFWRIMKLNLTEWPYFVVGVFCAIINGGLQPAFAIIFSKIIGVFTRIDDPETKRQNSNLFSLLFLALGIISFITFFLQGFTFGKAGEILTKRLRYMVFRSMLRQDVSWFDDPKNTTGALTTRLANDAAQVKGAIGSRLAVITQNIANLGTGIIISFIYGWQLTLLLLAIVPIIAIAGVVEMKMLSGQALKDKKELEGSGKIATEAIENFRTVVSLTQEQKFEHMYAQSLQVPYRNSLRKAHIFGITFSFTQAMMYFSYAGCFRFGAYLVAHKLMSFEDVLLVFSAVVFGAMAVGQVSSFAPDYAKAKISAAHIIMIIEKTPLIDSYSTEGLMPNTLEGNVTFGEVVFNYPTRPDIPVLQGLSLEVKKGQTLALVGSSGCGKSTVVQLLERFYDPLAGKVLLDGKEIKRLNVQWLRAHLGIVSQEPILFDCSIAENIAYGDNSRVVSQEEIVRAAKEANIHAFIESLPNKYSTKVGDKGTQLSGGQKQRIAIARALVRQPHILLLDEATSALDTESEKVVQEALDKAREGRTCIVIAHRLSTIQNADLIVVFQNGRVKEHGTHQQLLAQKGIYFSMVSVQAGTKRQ
Procedure: The vanadate-sensitive membrane vesicles ABCB1 and ABCG2 ATPase activity were determined as previously described, and the ABCB1- and ABCG2-overexpressing cell membranes were purchased from BD Biosciences (San Jose, CA, USA). The ATPase activities were calculated based on the measurement of inorganic phosphate (IP)detected using a spectrophotometer at 800 nm.

[11] = test system: ABCB1 on KB-C2 cells; format: cell-based, human
Procedure: (§3) [^3H]-paclitaxel (31 Ci/mmol, Moravek Biochemicals, Brea, CA, USA) was used to measure the drug accumulation and efflux as previously described. The only difference is that after the cells were seeded evenly in 24-well plate, the cells were incubated in the presence or absence of XH-14C and a parallel positive reversal agent for […]. Liquid scintillation cocktail used to measure the radioactivity was purchased from MP Biomedicals, Inc (St. Ana, CA, USA) and the radioactivity of different groups were read with the Packard TRI-CARB1 190‘A liquid scintillation analyzer. A parallel well of cells for each group was set up for cell number counting at the end of the assay for the purpose of data normalization.

[12] = test system: ABCB1-overexpressing KB-C2 cells; format: cell-based, human
Procedure: as §3

[13] = test system: KB-3-1 cells; test: [3H]-paclitaxel efflux assay in KB-3-1; format: cell-based, human; settings: 2 h, with or without a reversal agent
Procedure: as §3

[14] = biological target: T1, ABCB1; design: purchased BD Biosciences (San Jose, CA, USA); method as in PMID 25456855; settings: non-competitive inhibitor; cited from earlier work
[15] = Homo sapiens, KB-C2, read-out: IC50 of the anticancer drug alone
[16] = IC50 in NCI-H460/MX20 divided by IC50 in NCI-H460
[17] = KB-C2 cells (ABCB1-overexpressing human epidermal carcinoma)
[18] = NCI-H460/MX20 cells (ABCG2-overexpressing NSCLC)

Work on `N.N.[Cl][Pt][Cl]` [Cisplatin, cisplatin] yielded an IC50 [1] of 3.15 ± 0.47 µM, an IC50 [2] of 2.76 ± 0.23 µM and an IC50 [3] of 2.27 ± 0.489 µM. It also gave an IC50 [4] of 1.64 ± 0.487 µM and an IC50 ([5]; read-out: IC50 of the anticancer drug alone, KB-C2, no reversal agent, mean ± SD, at least three independent experiments in triplicate) of 1.76 ± 0.377 µM.
In the case of `COc1cccc2c1C(=O)c1c(O)c3c(c(O)c1C2=O)C[C@@](O)(C(=O)CO)C[C@@H]3O[C@H]1C[C@H](N)[C@H](O)[C@H](C)O1` [Doxorubicin, doxorubicin], the IC50 [6] is reported as 32.6 ± 4.81 µM, the “RF (resistant fold) of the anticancer drug alone” value (shortened to “RF (resistant fold)”) [6] is reported as 26.6 and the IC50 ([3]; Homo sapiens) is reported as 1.226 ± 0.00188 µM. For the same compound, the “RF (resistant fold)” value [3] was 1.00, the IC50 ([4]; Homo sapiens) was 1.28 ± 0.189 µM and the “RF (resistant fold)” value [4] was 1.00. For the same compound, the IC50 [5, 15] was 67.6 ± 2.46 µM and the “RF (resistant fold)” value ([5]; no reversal agent) was 53.0.
For `COc1ccc2c3c([nH]c2c1)[C@H](CC(C)C)N1C(=O)[C@H](CCC(=O)OC(C)(C)C)NC(=O)[C@@H]1C3` [Ko143], the “RF of cisplatin in combination with reversal agent” value ([1]; cisplatin + reversal agent 3 μM, IC50 in NCI-H460/MX20 divided by IC50 in NCI-H460) was 1.23, the “RF of mitoxantrone in combination with reversal agent” value ([1]; mitoxantrone + reversal agent 3 μM, IC50 in NCI-H460/MX20 divided by IC50 in NCI-H460) was 2.28 and the “RF of topotecan in combination with reversal agent” value ([1]; topotecan + reversal agent 3 μM, IC50 in NCI-H460/MX20 divided by IC50 in NCI-H460) was 1.96. The “RF of cisplatin in combination with reversal agent” value ([2]; cisplatin + reversal agent 3 μM, relative to NCI-H460) was 1.26, the “RF of mitoxantrone in combination with reversal agent” value ([2]; mitoxantrone + reversal agent 3 μM, relative to NCI-H460) was 1.10 and the “RF of topotecan in combination with reversal agent” value ([2]; topotecan + reversal agent 3 μM, relative to NCI-H460) was 0.76.
For `O=C1c2c(O)ccc(O)c2C(=O)c2c(NCCNCCO)ccc(NCCNCCO)c21` [Mitoxantrone, mitoxantrone], the IC50 ([1]; Homo sapiens) was 36.6 ± 4.53 µM, the “RF (resistant fold)” value [1, 16] was 937 and the IC50 ([2]; Homo sapiens) was 0.039 ± 0.005 µM. For the same compound, the “RF (resistant fold)” value [2] was 1.00.
With `CC(=O)O[C@H]1C(=O)[C@@]2(C)[C@H]([C@H](OC(=O)c3ccccc3)[C@]3(O)C[C@H](OC(=O)[C@H](O)[C@@H](NC(=O)c4ccccc4)c4ccccc4)C(C)=C1C3(C)C)[C@]1(OC(C)=O)CO[C@@H]1C[C@@H]2O` [Paclitaxel, paclitaxel] the IC50 [6] was 0.306 ± 0.0454 µM, the “RF (resistant fold)” value [6] was 21.38 and the IC50 ([3]; Homo sapiens) was 0.0143 ± 0.00153 µM. For the same compound, the “RF (resistant fold)” value [3] was 1.00, the IC50 ([4]; Homo sapiens) was 0.003 ± 0.0005 µM and the “RF (resistant fold)” value [4] was 1.00. For the same compound, the IC50 [5, 15] was 1.31 ± 0.271 µM and the “RF (resistant fold)” value ([5]; no reversal agent) was 437.
With `CC[C@@]1(O)C(=O)OCc2c1cc1n(c2=O)Cc2cc3c(CN(C)C)c(O)ccc3nc2-1` [Topotecan, topotecan] the IC50 ([1]; Homo sapiens) was 39.2 ± 4.85 µM, the “RF (resistant fold)” value [1, 16] was 799 and the IC50 ([2]; Homo sapiens) was 0.049 ± 0.006 µM. For the same compound, the “RF (resistant fold)” value [2] was 1.00.
With `CC[C@H](C)[C@H](NC(=O)[C@H](CCCNC(=N)N)NC(=O)[C@H](CCCCN)NC(=O)[C@@H](NC(=O)[C@@H](N)Cc1ccccc1)[C@@H](C)CC)C(=O)N[C@@H](C)C(=O)N[C@@H](CCCNC(=N)N)C(=O)N[C@@H](CC(C)C)C(=O)N[C@@H](CC(C)C)C(=O)N[C@@H](CCCNC(=N)N)C(=O)N[C@@H](CCCCN)C(=O)N[C@H](C(=O)N[C@@H](CCCCN)C(=O)N[C@@H](CCCNC(=N)N)C(=O)O)[C@@H](C)CC` [XH-14A] (H-FIKRIARLLRKIKR-OH) the IC50 [7, 17] was 22.4 µM, the IC50 [7, 18] was 8.22 µM and the IC50 [8] was 10.1 µM. For the same compound, the IC50 [9] was 8.73 µM.
`CC[C@H](C)[C@H](NC(=O)[C@H](CCCNC(=N)N)NC(=O)[C@H](CCCCN)NC(=O)[C@@H](NC(=O)[C@@H](N)Cc1ccccc1)[C@@H](C)CC)C(=O)N[C@@H](C)C(=O)N[C@@H](CCCNC(=N)N)C(=O)N[C@@H](CC(C)C)C(=O)N[C@@H](CC(C)C)C(=O)N[C@@H](CCCNC(=N)N)C(=O)N[C@@H](CCCCN)C(=O)N[C@H](C(=O)N[C@@H](Cc1ccccc1)C(=O)N[C@@H](CCCNC(=N)N)C(=O)O)[C@@H](C)CC` [XH-14B] (H-FIKRIARLLRKIFR-OH) showed an IC50 [7, 17] of 8.38 µM, an IC50 [7, 18] of 7.28 µM and an IC50 [8] of 9.37 µM. It also gave an IC50 [9] of 10 µM.
In the case of `CC[C@H](C)[C@H](NC(=O)[C@H](CCCNC(=N)N)NC(=O)[C@H](CCCCN)NC(=O)[C@@H](NC(=O)[C@@H](N)Cc1ccccc1)[C@@H](C)CC)C(=O)N[C@@H](C)C(=O)N[C@@H](CCCNC(=N)N)C(=O)N[C@@H](CC(C)C)C(=O)N[C@@H](CC(C)C)C(=O)N[C@@H](CCCNC(=N)N)C(=O)N[C@@H](CCCCN)C(=O)N[C@H](C(=O)N[C@@H](Cc1c[nH]c2ccccc12)C(=O)N[C@@H](CCCNC(=N)N)C(=O)O)[C@@H](C)CC` [XH-14C] (H-FIKRIARLLRKIWR-OH), the “effect on cytotoxicity of cisplatin” value ([5]; non-substrate of ABCB1, all tested cell lines) is reported as “no effect on the cytotoxicity of cisplatin”, the “maximal stimulation of ABCB1 ATPase activity” value [10] is reported as 3.28 fold and the IC50 [7, 17] is reported as 7.82 µM. For the same compound, the IC50 [7, 18] was 8.3 µM, the IC50 [8] was 9.07 µM and the IC50 [9] was 8.12 µM.
With `CC(=O)O[C@H]1C(=O)[C@@]2(C)[C@H]([C@H](OC(=O)c3ccccc3)[C@]3(O)C[C@H](OC(=O)[C@H](O)[C@@H](NC(=O)c4ccccc4)c4ccccc4)C(C)=C1C3(C)C)[C@]1(OC(C)=O)CO[C@@H]1C[C@@H]2O` [[^3H]-paclitaxel] the “decrease in intracellular [3H]-paclitaxel (efflux) without XH-14C” value [11] was “about 50%”, the “intracellular [3H]-paclitaxel in KB-C2, fold lower than in KB-3-1” value [12] was “more than 100 fold” and the “change of cellular [3H]-paclitaxel in KB-3-1” value [13] was “did not significantly change”.
For `COc1cc2c(cc1OC)CN(CCc1ccc(NC(=O)c3cc(OC)c(OC)cc3NC(=O)c3cnc4ccccc4c3)cc1)CC2` [tariquidar], the “ABCB1 ATPase stimulation” value [14] is listed as “able to stimulate ABCB1 ATPase activity”.
